The numbers were not newly measured in patent US11857556B2, “Topical compositions of dutasteride” (SHILPA MEDICARE LIMITED, priority 2021, dated 2024), which cites them from elsewhere.

For the molecule `C[C@]12C=CC(=O)N[C@@H]1CC[C@@H]1[C@@H]2CC[C@]2(C)[C@@H](C(=O)Nc3cc(C(F)(F)F)ccc3C(F)(F)F)CC[C@@H]12` [Dutasteride, (5α,17β)-N-{2,5-bis(trifluoromethyl)phenyl}-3-oxo-4-azaandrost-1-ene-17-carboxamide], the “Solubility in ethanol, methanol and polyethylene glycol 400” value (ethanol, methanol and polyethylene glycol 400) is given as “soluble”. In addition, the Solubility in water result (water) was “insoluble”.
